Patent publication US20150175599A1, “FAAH Inhibitors” (Ironwood Pharmaceuticals, Inc., priority 2010, published 2015)

Experiments:
human FAAH-1 = biological target: T1, human FAAH-1 (Homo sapiens, UniProt O00519); experiment: Whole cell anandamide hydrolysis assay (HeLa clone 5c5 transfected with human FAAH-1); assay type: cell-based; details: HeLa clone 5c5 expressing human FAAH-1; read-out: human FAAH whole cell IC50
T1 sequence (O00519 1-579): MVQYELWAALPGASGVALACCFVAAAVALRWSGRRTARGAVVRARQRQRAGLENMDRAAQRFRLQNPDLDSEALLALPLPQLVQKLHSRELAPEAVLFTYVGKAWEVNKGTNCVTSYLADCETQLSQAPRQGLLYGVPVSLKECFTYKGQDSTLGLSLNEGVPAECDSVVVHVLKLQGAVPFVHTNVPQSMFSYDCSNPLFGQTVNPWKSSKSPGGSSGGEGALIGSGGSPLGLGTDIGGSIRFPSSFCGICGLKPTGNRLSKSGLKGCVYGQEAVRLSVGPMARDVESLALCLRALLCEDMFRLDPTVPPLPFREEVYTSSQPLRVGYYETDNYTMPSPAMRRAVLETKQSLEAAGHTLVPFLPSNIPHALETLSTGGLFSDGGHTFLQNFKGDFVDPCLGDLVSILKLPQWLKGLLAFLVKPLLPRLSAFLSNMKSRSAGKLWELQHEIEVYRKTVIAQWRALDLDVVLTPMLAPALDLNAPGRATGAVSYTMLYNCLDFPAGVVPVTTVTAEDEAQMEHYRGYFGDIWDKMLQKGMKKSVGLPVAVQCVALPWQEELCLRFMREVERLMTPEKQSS
Method: FAAH activity was assayed in whole cells using methods disclosed previously (Maccarone et al., 1998 J Biol. Chem. 273:32332 and Bisogno et al., 1997 J Biol. Chem. 272:3315). In addition to the cell lines described in Maccarone et al. and Bisogno et al., MCF7 (ATCC designation HTB-22) and T84 (ATCC designation CCL-248) cell lines were also used in these assays.
cDNA expression clone for human FAAH-1 (in pcDNA3 vector) (Genbank Accession U82535; obtained from Benjamin Cravatt, Scripps Research Institute, La Jolla, Calif.) was linearized by digestion with BglII (New England Biolabs) and transfected by calcium phosphate into human HeLa cells (ATCC catalog #CCL-2). […] Following transfection, a stable HeLa-derived clone, designated 5c5, was isolated by single colony purification and expanded and maintained in modified Eagles medium (MEM; VWR catalog #45000-300) containing 10% fetal bovine serum (FBS), 2 mM L-glutamine, and 0.5 mg/mL G-418 (Sigma catalog #G5013).
Clone 5c5 (50,000 cells in 150 μL) was seeded into 96-well plates and incubated overnight (5% CO2, 37° C.). Media was carefully replaced with 180 μL DMEM/F12 medium (VWR catalog #45000-350) containing 15 mM HEPES, pH 7.4 and 0.1% fatty acid free BSA (Sigma catalog #A0281). Then, 2 μL of 100× desired final concentrations of certain exemplary compounds described herein were made up in DMSO, added to wells containing cells, and plates were incubated at 37° C. for 10 min. Next, 20 μL of 5 μM anandamide (Cayman catalog #90050) spiked with 8 μCi of anandamide-(ethanolamine-1-[^3H]) (American Radiolabeled Chemicals, Inc., catalog #ART 626) was added to the cells and the plates were incubated for an additional 15 min at 37° C. The reactions were terminated by chilling the plates on ice and adding 20 μL of 0.5M of potassium phosphate buffer (adjusted to pH 2.1 with phosphoric acid).
The acidified reactions were transferred to 96-well filter plates (0.25 mL capacity/well, 1.2 micron glass fiber pre-filter packed above 0.65 micron pore-size PVDF membrane, Millipore catalog MSFCN6B50) containing 25 μL charcoal (neutral activated carbon, Fisher Scientific catalog C170-500) per well. Prior to the assay, charcoal was measured and loaded onto the plate using an aluminum 96-well column loading device (Millipore catalog MACL09625). The filter plate was assembled over an empty 96-well plate (Costar) using a centrifuge alignment frame (Millipore catalog MACF09604) to allow for collection of the filtrate in the receiver plate. The charcoal glass-fiber filter plates were pre-washed with methanol by centrifugation 650×g for 10 min). Next, 80 μL of water was added to the wells of the pre-washed 96 well charcoal filter plate. Then, 90 μL of the acidified reaction mixture was added to the water in the wells of the charcoal plate. The samples were centrifuged as above. The substrate remained bound to the charcoal, whereas the [^3H]-ethanolamine product formed flowed through and was transferred to the microplates containing scintillation cocktail and quantified in a micro-plate scintillation counter (Perkin-Elmer Microbeta). Control reactions with either no cells or cells treated with DMSO alone were performed in triplicate and used to define background (no cells) and 100% activity (DMSO alone).
Following subtraction of background radioactivity, data were expressed as percent inhibition relative to 100% activity and fit with a nonlinear regression curve using GraphPad Prism Software (GraphPad Software Inc). IC50 values were calculated from the resulting dose-response curves constrained at top and bottom to 100% and 0%, respectively.

[1] = Pharmacokinetic study, plasma level 2 hours after oral dosing in rats; assay type: in vivo
Method: Pharmacokinetic studies were conducted to determine absorption and distribution profiles of the disclosed compounds which were orally administered to rats.
Compounds were formulated in a 1% DMA/99% Vitamin E TPGS vehicle. Prepared compounds were dosed via oral gavage (PO). Following the appropriate pretreatment time of 2 hours, rats were anesthetized with isoflurane gas. Blood was collected into tubes containing EDTA via retro-orbital eye bleed. Whole blood was spun in a micro-centrifuge at approximately 13,000 rpm for 5 minutes at room temperature. Separated plasma was subsequently aliquoted into eppendorf tubes. Samples were stored at −80° C. until prepped for analysis.
Plasma samples were thawed and the required amount of plasma for standards, blanks and dilutions were made. The dilutions were prepared before plating. Preparation of crash solution included cold acetonitrile+0.1% formic acid and 25 ng/mL of a FAAH inhibitor used as internal standard. solvent standards of the FAAH inhibitor being studied were preparation at 10, 30, 100, 300, 1000, 3000, 10000, 30000, 100000, and 300000 ng/mL in DMSO. Then a plasma standard curve was generated from the solvent standards (final concentrations of standards in plasma were: 0.1, 0.3, 1, 3, 10, 30, 100, 300, 1000, 3000 ng/mL). 50 μL of each plasma sample/dilution, standard, or blank was transferred into 96-well plates. To each well, 200 μL of cold crash solution was added. The plate was covered and gently vortexed. The plate was centrifuged at 3500 rpm, 4° C. for 10 min. 200 μL of each supernatant was transferred into new plates. The plates were dried under nitrogen in a TurboVap at 55° C. The sample in each well was re-suspended with 100 μL of 30% acetonitrile, covered and vortexed gently. The well solutions were analyzed by the LC/MS/MS conditions and specifications below.
HPLC column was a Clipeus C8, 2.1×30 mm, 5 μm, with Basic 8 guard column using 20 μL injections. Mobile phase used was mobile phase A: 0.1% Formic Acid in water and mobile phase B: 0.1% Formic Acid in 85:10:5 ACN:IPA:H2O. The flow rate for the run was 0.5 mL/min and the gradient for the 4 minute total run time was: 0.0 minutes

With `COc1cc(NC(=O)C(=O)c2c(C)n(Cc3ccc(Cl)cc3)c3ccc(C(F)(F)F)cc23)ccn1` [Compound 21, 2-(1-(4-chlorobenzyl)-2-methyl-5-(trifluoromethyl)-1H-indol-3-yl)-N-(2-methoxypyridin-4-yl)-2-oxoacetamide] the IC50 (human FAAH-1) was under 0.1 µM and the “2 hr plasma level-ng/mL (rat, 10 mg/kg PO, 2 hr)” value (“2 hr plasma level-ng/mL” for short) [1] was “C (C = between 100 nM and 1000 nM)”.

For `COc1cc(NC(=O)C(=O)c2c(C)n(Cc3ccc(Cl)cc3)c3ccc(NC(C)=O)cc23)ccn1` [Compound 22, 2-(5-acetamido-1-(4-chlorobenzyl)-2-methyl-1H-indol-3-yl)-N-(2-methoxypyridin-4-yl)-2-oxoacetamide], the IC50 (human FAAH-1) was under 0.1 µM and the “2 hr plasma level-ng/mL” value [1] was “B (B = between 10 nM and 100 nM)”.

For `COc1cc(NC(=O)C(=O)c2c(C)n(Cc3ccc(Cl)cc3)c3ccc(OC(F)(F)F)cc23)ccn1` [Compound 23, 2-(1-(4-chlorobenzyl)-2-methyl-5-(trifluoromethoxy)-1H-indol-3-yl)-N-(2-methoxypyridin-4-yl)-2-oxoacetamide], the IC50 (human FAAH-1) was under 0.1 µM and the “2 hr plasma level-ng/mL” value [1] was “C (C = between 100 nM and 1000 nM)”.

In the case of `COc1cnc2c(c1)c(C(=O)C(=O)Nc1ccnc(OC)c1)c(C)n2Cc1ncc(Cl)cc1Cl` [Compound 29, 2-(1-((3,5-dichloropyridin-2-yl)methyl)-5-methoxy-2-methyl-1H-pyrrolo[2,3-b]pyridin-3-yl)-N-(2-methoxypyridin-4-yl)-2-oxoacetamide], the IC50 (human FAAH-1) is reported as under 0.1 µM and the “2 hr plasma level-ng/mL” value [1] is reported as “D (D = greater than 1000 nM)”.

With `COc1cc(NC(=O)C(=O)c2c(C)n(Cc3ncc(Cl)cc3Cl)c3ccc(C)cc23)ccn1` [Compound 30, 2-(1-((3,5-dichloropyridin-2-yl)methyl)-2,5-dimethyl-1H-indol-3-yl)-N-(2-methoxypyridin-4-yl)-2-oxoacetamide] the IC50 (human FAAH-1) was under 0.1 µM and the “2 hr plasma level-ng/mL” value [1] was “C (C = between 100 nM and 1000 nM)”.

For `COc1cc(NC(=O)C(=O)c2c(C)n(Cc3ncc(Cl)cc3Cl)c3ccccc23)ccn1` [Compound 31, 2-(1-((3,5-dichloropyridin-2-yl)methyl)-2-methyl-1H-indol-3-yl)-N-(2-methoxypyridin-4-yl)-2-oxoacetamide], the IC50 (human FAAH-1) was under 0.1 µM and the “2 hr plasma level-ng/mL” value [1] was “D (D = greater than 1000 nM)”.

With `COc1ccc(Cn2c(C)c(C(=O)C(=O)Nc3ccnc(OC)c3)c3cc(OC)c(F)cc32)nc1` [Compound 32, 2-(6-fluoro-5-methoxy-1-((5-methoxypyridin-2-yl)methyl)-2-methyl-1H-indol-3-yl)-N-(2-methoxypyridin-4-yl)-2-oxoacetamide] the IC50 (human FAAH-1) was under 0.1 µM and the “2 hr plasma level-ng/mL” value [1] was “C (C = between 100 nM and 1000 nM)”.

In the case of `COc1cc(NC(=O)C(=O)c2c(C)n(Cc3ncc(Cl)cc3F)c3ccc(C)cc23)ccn1` [Compound 33, 2-(1-((5-chloro-3-fluoropyridin-2-yl)methyl)-2,5-dimethyl-1H-indol-3-yl)-N-(2-methoxypyridin-4-yl)-2-oxoacetamide], the IC50 (human FAAH-1) is reported as under 0.1 µM and the “2 hr plasma level-ng/mL” value [1] is reported as “C (C = between 100 nM and 1000 nM)”.

For `COc1cnc2c(c1)c(C(=O)C(=O)Nc1ccnc(OC)c1)c(C)n2Cc1ncc(Cl)cc1F` [Compound 34, 2-(1-((5-chloro-3-fluoropyridin-2-yl)methyl)-5-methoxy-2-methyl-1H-pyrrolo[2,3-b]pyridin-3-yl)-N-(2-methoxypyridin-4-yl)-2-oxoacetamide], the IC50 (human FAAH-1) was under 0.1 µM and the “2 hr plasma level-ng/mL” value [1] was “D (D = greater than 1000 nM)”.

With `COc1cc(NC(=O)C(=O)c2c(C)n(Cc3ccc(Cl)cc3)c3ccc(OC)nc23)ccn1` [Compound 36, 2-(1-(4-chlorobenzyl)-5-methoxy-2-methyl-1H-pyrrolo[3,2-b]pyridin-3-yl)-N-(2-methoxypyridin-4-yl)-2-oxoacetamide] the IC50 (human FAAH-1) was under 0.1 µM and the “2 hr plasma level-ng/mL” value [1] was “C (C = between 100 nM and 1000 nM)”.

For `COc1cc(NC(=O)C(=O)c2c(C)n(Cc3ccc(Cl)cc3)c3ccncc23)ccn1` [Compound 37, 2-(1-(4-chlorobenzyl)-2-methyl-1H-pyrrolo[3,2-c]pyridin-3-yl)-N-(2-methoxypyridin-4-yl)-2-oxoacetamide], the IC50 (human FAAH-1) was under 0.1 µM and the “2 hr plasma level-ng/mL” value [1] was “C (C = between 100 nM and 1000 nM)”.

With `COc1cnc2c(c1)c(C(=O)C(=O)Nc1ccnc(OC)c1)c(C)n2Cc1ccc(Cl)cc1` [Compound 38, 2-(1-(4-chlorobenzyl)-5-methoxy-2-methyl-1H-pyrrolo[2,3-b]pyridin-3-yl)-N-(2-methoxypyridin-4-yl)-2-oxoacetamide] the IC50 (human FAAH-1) was under 0.1 µM and the “2 hr plasma level-ng/mL” value [1] was “C (C = between 100 nM and 1000 nM)”.

For `COc1cnc2c(c1)c(C(=O)C(=O)Nc1ccnc(OC)c1)c(C)n2Cc1ccc(Cl)cn1` [Compound 41, 2-(1-((5-chloropyridin-2-yl)methyl)-5-methoxy-2-methyl-1H-pyrrolo[2,3-b]pyridin-3-yl)-N-(2-methoxypyridin-4-yl)-2-oxoacetamide], the IC50 (human FAAH-1) was under 0.1 µM and the “2 hr plasma level-ng/mL” value [1] was “D (D = greater than 1000 nM)”.

With `COc1cnc2c(c1)c(C(=O)C(=O)Nc1ccnc(OC)c1)c(C)n2Cc1ccc(Cl)cc1Cl` [Compound 42, 2-(1-(2,4-dichlorobenzyl)-5-methoxy-2-methyl-1H-pyrrolo[2,3-b]pyridin-3-yl)-N-(2-methoxypyridin-4-yl)-2-oxoacetamide] the IC50 (human FAAH-1) was under 0.1 µM and the “2 hr plasma level-ng/mL” value [1] was “C (C = between 100 nM and 1000 nM)”.
